For this assay, the system named is Her2. Put plainly: IC50 range for inhibition of Her2 degradation (Table 8). Type of assay: cell-based. Particulars: Homo sapiens. The protocol:
Human high-Her2 breast carcinoma BT474 (HTB-20), SK-BR-3 (HTB-30) and MCF-7 breast carcinoma (HTB-22) from American Type Culture Collection, VA, USA were grown in Dulbecco's modified Eagle's medium with 4 mM L-glutamine and antibiotics (100 IU/ml penicillin and 100 ug/ml streptomycine; GibcoBRL). To obtain exponential cell growth, cells were trypsinized, counted and seeded at a cell density of 0.5×10^6 cells/ml regularly, every 3 days. All experiments were performed on day 1 after cell passage. […]
After treatment with a compound of the invention, cells were washed twice with 1×PBS/1% FBS, and then stained with anti-Her2-FITC (#340553, BD) for 30 min at 4° C. Cells were then washed three times in FACS buffer before the fixation in 0.5 ml 1% paraformadehydrede. Data was acquired on a FACSCalibur system. Isotype-matched controls were used to establish the non-specific staining of samples and to set the fluorescent markers. A total 10,000 events were recorded from each sample. Data were analysed by using CellQuest software (BD Biosciences).

A word on the IC50: it is the midpoint of a concentration-inhibition curve. Read a low IC50 as greater potency. In turn, `COCCOc1ccc(-n2c(S)nnc2-c2ccc(O)cc2O)c2ccccc12` [Compound 2, 3-(2,4-Dihydroxyphenyl)-4-[4-(2-methoxyethoxy)-naphthalen-1-yl]-5-mercapto-triazole] gave an IC50 of 3 to 10 µM.
For `CCOc1ccc2c(-n3c(S)nnc3-c3ccc(O)cc3O)cccc2c1` [Compound 6], the IC50 lay within 3 to 10 µM.
The same measure for `CCCOc1ccc2c(-n3c(S)nnc3-c3ccc(O)cc3O)cccc2c1` [Compound 7]: 3 to 10 µM; for `CCc1cc(-c2nnc(S)n2-c2cccc3c(OC)cccc23)c(O)cc1O` [Compound 8, 3-(2,4-Dihydroxy-5-ethyl-phenyl)-4-(5-methoxy-naphthalen-1-yl)-5-mercapto-triazole]: below 3 µM.
`CC(C)Oc1ccc2c(-n3c(S)nnc3-c3ccc(O)cc3O)cccc2c1` [Compound 9] yielded a 50% inhibitory concentration (IC50) of 3 to 10 µM.
As to `CCn1ccc2c(-n3c(S)nnc3-c3ccc(O)cc3O)cccc21` [Compound 13, 3-(2,4-Dihydroxyphenyl)-4-(1-ethyl-indol-4-yl)-5-mercapto-triazole], the half-maximal inhibitory concentration (IC50) was below 3 µM.
As to `Oc1ccc(-c2nnc(S)n2-c2cccc3c2OCCO3)c(O)c1` [Compound 14, 3-(2,4-Dihydroxyphenyl)-4-(2,3-dihydro-benzo[1,4]dioxin-5-yl)-5-mercapto-triazole], the IC50 lay in the range of 3 to 10 µM.
Regarding `COc1cccc(-n2c(S)nnc2-c2ccc(O)cc2O)c1` [Compound 21, 3-(2,4-Dihydroxyphenyl)-4-(3-methoxyphenyl)-5-mercapto-triazole], the IC50 lay in the range of 10 to 100 µM.
Take `COc1ccc(-n2c(S)nnc2-c2ccc(O)cc2O)cc1` [Compound 22, 3-(2,4-Dihydroxyphenyl)-4-(4-methoxyphenyl)-5-mercapto-triazole]: the IC50 lay within 10 to 100 µM.
Consider `Cc1ccc(-n2c(S)nnc2-c2ccc(O)cc2O)c(C)c1` [Compound 28, 3-(2,4-Dihydroxyphenyl)-4-(2,4-dimethyl-phenyl)-5-mercapto-triazole], for which the IC50 is 3 to 10 µM.
In the case of `Cc1cc(C)cc(-n2c(S)nnc2-c2ccc(O)cc2O)c1` [Compound 30], the IC50 lay in the range of 10 to 100 µM.
In the case of `Cc1cccc(-n2c(S)nnc2-c2ccc(O)cc2O)c1C` [Compound 34, 3-(2,4-Dihydroxyphenyl)-4-(2,3-dimethylphenyl)-5-mercapto-triazole], the half-maximal inhibitory concentration (IC50) is 3 to 10 µM.
The compound `Oc1ccc(-c2nnc(S)n2-c2ccc3c4c(cccc24)CC3)c(O)c1` [Compound 36, 3-(2,4-Dihydroxyphenyl)-4-(acenaphthalen-5-yl)-5-mercapto-triazole] showed a half-maximal inhibitory concentration (IC50) of 3 to 10 µM.
The same measure for `Oc1ccc(-c2nnc(S)n2-c2cccc(Cl)c2Cl)c(O)c1` [Compound 38, 3-(2,4-Dihydroxyphenyl)-4-(2,3-dichlorophenyl)-5-mercapto-triazole]: 3 to 10 µM; for `COc1cccc2c(-n3c(S)nnc3-c3ccc(O)cc3O)cccc12` [Compound 39, 3-(2,4-Dihydroxyphenyl)-4-(5-methoxynaphthalen-1-yl)-5-mercapto-triazole]: below 3 µM; for `Oc1ccc(-c2nnc(S)n2-c2cccc3c2CCCC3)c(O)c1` [Compound 42, 3-(2,4-Dihydroxyphenyl)-4-(1,2,3,4-tetrahydronaphthalen-5-yl)-5-mercapto-triazole]: 3 to 10 µM.
With `Oc1ccc(-c2nnc(S)n2-c2ccc(Cl)c3ccccc23)c(O)c1` [Compound 48, 3-(2,4-Dihydroxyphenyl)-4-(4-chloronaphthalen-1-yl)-5-mercapto-triazole], the IC50 is 3 to 10 µM.
`Cc1cc(-n2c(S)nnc2-c2ccc(O)cc2O)c2ccccc2n1` [Compound 51, 3-(2,4-Dihydroxyphenyl)-4-(2-methyl-quinolin-4-yl)-5-mercapto-triazole]: the IC50 was 10 to 100 µM.
Compound `CCn1cc(-c2nnc(S)n2-c2cccc3ccccc23)c(O)cc1=O` [Compound 59, 3-(1-ethyl-4-hydroxy-6-oxo-1,6-dihydro-pyridin-3-yl)-4-(naphthalen-1-yl)-5-mercapto-triazole] yielded a concentration for half-maximal inhibition (IC50) of 10 to 100 µM.
The same measure for `Cn1cc(-c2nnc(S)n2-c2cccc3ccccc23)c(O)cc1=O` [Compound 60]: 10 to 100 µM.
In the case of `CC(C)(C)c1cc(-n2c(S)nnc2-c2ccc(O)cc2O)cc(C(C)(C)C)c1` [Compound 61, 3-(2,4-Dihydroxy-phenyl)-4-(3,5-di-tert-butylphenyl)-5-mercapto-triazole], the 50% inhibitory concentration (IC50) was 10 to 100 µM.
Take `Oc1nc(O)c(-c2nnc(S)n2-c2cccc3ccccc23)cc1F` [Compound 62, 3-(2,6-Dihydroxy5-fluoro-pyridin-3-yl) 4-(naphthalen-1-yl)-5-mercapto-triazole]: the IC50 was in the range of 10 to 100 µM.
`Cc1cc(-c2nnc(S)n2-c2cccc3ccccc23)c(O)cc1O` [Compound 63, 3-(2,4-Dihydroxy-5-methyl-phenyl)-4-(naphthalene-1-yl)-5-mercapto-triazole] yielded an IC50 below 3 µM.
In turn, `O=C(c1ccccc1)c1cccc(-n2c(S)nnc2-c2ccc(O)cc2O)c1` [Compound 64, 3-[2,4-Dihydroxy-phenyl]-4-(3-benzoylphenyl)-5-mercapto-triazole] registered an IC50 of 3 to 10 µM.
The same measure for `Oc1ccc(-c2nnc(S)n2-c2cccc3cnccc23)c(O)c1` [Compound 70, 3-(2,4-Dihydroxy-phenyl)-4-(isoquinolin-5-yl)-5-mercapto-triazole]: 3 to 10 µM.
`CCc1cc(-c2nnc(S)n2-c2ccc(OC)c3ccccc23)c(O)cc1O` [Compound 76, 3-(2,4-Dihydroxy-5-ethyl-phenyl)-4-(4-methoxy-naphthalen-1-yl)-5-mercapto-triazole] yielded a half-inhibitory concentration (IC50) below 3 µM.
In the case of `CCc1cc(-c2nnc(S)n2-c2cccc3cc(OC)ccc23)c(O)cc1O` [Compound 77, 3-(2,4-Dihydroxy-5-ethyl-phenyl)-4-(6-methoxy-naphthalin-1-yl)-5-mercapto-triazole], the IC50 is below 3 µM.
In turn, `CCc1cc(-c2nnc(S)n2-c2ccc(OC)c(C)c2C)c(O)cc1O` [Compound 79, 3-(2,4-Dihydroxy-5-ethyl-phenyl)-4-(2,3-dimethy-4-methoxy-phenyl)-5-mercapto-triazole] had an IC50 below 3 µM.
Consider `Oc1ccc(-c2nnc(S)n2-c2ccc(O)c3ccccc23)c(O)c1` [Compound 87, 3-(2,4-Dihydroxyphenyl)-4-(4-hydroxy-naphthalen-1-yl)-5-mercapto-triazole], for which the half-inhibitory concentration (IC50) is below 3 µM.
Take `CC(C)n1ccc2c(-n3c(S)nnc3-c3ccc(O)cc3O)cccc21` [Compound 88, 3-(2,4-Dihydroxyphenyl)-4-(1-isopropyl-indol-4-yl)-5-mercapto-triazole]: the concentration for half-maximal inhibition (IC50) is below 3 µM.
In the case of `COc1cccc(-n2c(S)nnc2-c2ccc(O)cc2O)c1OC` [Compound 93, 3-(2,4-Dihydroxy-phenyl)-4-(2,3-dimethoxy-phenyl)-5-mercapto-triazole], the IC50 is 3 to 10 µM.
Consider `Oc1ccc(-c2nnc(S)n2-c2cccc3[nH]ccc23)c(O)c1` [Compound 95, 3-(2,4-Dihydroxy-phenyl)-4-(indol-4-yl)-5-mercapto-triazole], for which the IC50 was below 3 µM.
Consider `COCCn1ccc2c(-n3c(S)nnc3-c3ccc(O)cc3O)cccc21` [Compound 96], for which the IC50 is below 3 µM.
For the compound `[O-][n+]1ccc(-c2nnc(S)n2-c2cccc3ccccc23)c(O)c1` [Compound 98, 3-(1-Oxo-3-hydroxy-pyridin-4-yl)-4-(naphthalen-1-yl)-5-mercapto-triazole], the 50% inhibitory concentration (IC50) lay in the range of 10 to 100 µM.
For the compound `O=C(O)c1cc(O)c(-c2nnc(S)n2-c2cccc3ccccc23)cc1O` [Compound 99, 3-(2,5-Dihydroxy-4-carboxy)-4-(naphthalen-1-yl)-5-mercapto-triazole], the concentration for half-maximal inhibition (IC50) fell in the range of 10 to 100 µM.
In turn, `CCc1cc(-c2nnc(S)n2-c2cccc3c2ccn3C(C)C)c(O)cc1O` [Compound 100, 3-(2,4-Dihydroxy-5-ethyl-phenyl)-4-(1-isopropyl-indol-4-yl)-5-mercapto-triazole] yielded an IC50 below 3 µM.
The same measure for `CCc1cc(-c2nnc(S)n2-c2cccc3c2ncn3CC)c(O)cc1O` [Compound 102, 3-(2,4-Dihydroxy-5-ethyl-phenyl)-4-(1-ethyl-benzoimidazol-4-yl)-5-mercapto-triazole]: 10 to 100 µM.
The same measure for `CCc1cc(-c2nnc(S)n2-c2ccc3c(c2)c(C)c(C)n3C)c(O)cc1O` [Compound 103, 3-(2,4-Dihydroxy-5-ethyl-phenyl)-4-(1,2,3-trimethyl-indol-5-yl)-5-mercapto-triazole]: below 3 µM; for `OCc1cc(O)c(-c2nnc(S)n2-c2cccc3ccccc23)cc1O` [Compound 104, 3-(2,5-Dihydroxy-4-hydroxymethyl-phenyl)-4-(naphthalen-1-yl)-5-mercapto-triazole]: 10 to 100 µM; for `CC(=O)Oc1ccc(-c2nnc(SC(C)=O)n2-c2cccc3ccccc23)c(OC(C)=O)c1` [Compound 122, 3-(2,4-Diacetoxy-phenyl)-4-(naphthalen-1-yl)-5-(acetylsulfanyl)-triazole]: 3 to 10 µM.
`CC(=O)Oc1ccc(-c2nnc(S)n2-c2cccc3ccccc23)c(OC(C)=O)c1` [Compound 123, 3-(2,4-Diacetoxy-phenyl)-4-(naphthalen-1-yl)-5-mercapto-triazole] came in with a 50% inhibitory concentration (IC50) of 10 to 100 µM.
In the case of `COc1cc(-c2nnc(S)n2-c2cccc3ccccc23)c(O)cc1O` [Compound 177, 3-(2,4-Dihydroxy-5-methoxy-phenyl)-4-(naphthalen-1-yl)-5-mercapto-triazole], the IC50 is below 3 µM.
The same measure for `CCc1cc(-c2nnc(S)n2-c2cccc3c(O)cccc23)c(O)cc1O` [Compound 178, 3-(2,4-Dihydroxy-5-ethyl-phenyl)-4-(5-hydroxy-naphthalen-1-yl)-5-mercapto-triazole]: below 3 µM.

(Values after US20080004276A1, “Method for treating non-hodgkin's lymphoma” (priority 2006, published 2008).)
